In ChEMBL document CHEMBL6078706, “Deciphering the Comprehensive Structure-Activity Relationship of Sunshinamide for Breast Cancer Therapy through Dual Modulation of Apoptotic and Ferroptotic Pathways via TrxR1 and Gpx4 Inhibition” (J Med Chem, 2024):
Calls of active or inactive are those of the source. No cut-off for these calls is given here.

Columns and labels:
[1] = target: T1, Thioredoxin reductase 1, cytoplasmic (Homo sapiens) (UniProt Q16881); test: Inhibition of TRXR1 in human MDA-MB-468 cells incubated for 24 hrs by; assay type: cell-based
T1 sequence (whole entry): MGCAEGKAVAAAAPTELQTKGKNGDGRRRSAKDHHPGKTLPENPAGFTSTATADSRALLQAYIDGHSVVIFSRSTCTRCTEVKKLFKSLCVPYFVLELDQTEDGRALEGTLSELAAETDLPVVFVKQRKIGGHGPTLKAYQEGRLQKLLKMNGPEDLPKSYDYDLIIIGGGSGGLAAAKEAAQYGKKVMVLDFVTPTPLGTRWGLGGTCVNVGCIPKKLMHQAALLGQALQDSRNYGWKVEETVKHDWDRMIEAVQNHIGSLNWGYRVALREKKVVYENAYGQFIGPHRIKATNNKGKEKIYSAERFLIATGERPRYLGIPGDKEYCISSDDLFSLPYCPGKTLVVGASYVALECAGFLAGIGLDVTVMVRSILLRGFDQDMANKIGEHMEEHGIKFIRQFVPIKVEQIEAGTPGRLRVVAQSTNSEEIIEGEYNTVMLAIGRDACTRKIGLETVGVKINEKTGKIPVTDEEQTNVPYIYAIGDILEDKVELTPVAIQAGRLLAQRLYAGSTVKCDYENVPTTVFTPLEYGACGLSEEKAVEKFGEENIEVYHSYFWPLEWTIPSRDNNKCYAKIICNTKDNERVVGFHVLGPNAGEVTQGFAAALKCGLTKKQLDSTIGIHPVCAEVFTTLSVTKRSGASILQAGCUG

MDA-MB-468 [2] = test: Induction of ROS production in human MDA-MB-468 cells expressing TrxR1 assessed as reduction in ROS level at 25 nM incubated for 6 hrs by DCFH-DA staining based flow cytometry analysis; assay type: functional, cell-based
MDA-MB-468 [3] = test: Induction of endoplasmic reticulum (ER) stress-mediated apoptosis in human MDA-MB-468 cells assessed as increase in CHOP expression at 25 nM measured after 12 hrs by Western blot analysis; assay type: functional, cell-based
MDA-MB-468 [4] = test: Induction of endoplasmic reticulum (ER) stress-mediated apoptosis in human MDA-MB-468 cells assessed as increase in ATF4 expression at 25 nM measured at 4 to 48 hrs by Western blot analysis; assay type: functional, cell-based; settings: time 4-48 hrs
MDA-MB-468 [5] = test: Induction of endoplasmic reticulum (ER) stress-mediated apoptosis in human MDA-MB-468 cells assessed as increase in CHOP expression at 25 nM measured at 4 to 48 hrs by Western blot analysis; assay type: functional, cell-based; settings: time 4-48 hrs
MDA-MB-468 [6] = test: Induction of mitochondrial ROS generation in human MDA-MB-468 cells at 25 nM incubated for 6 hrs by MitoSOX dye staining based flow cytometry analysis; assay type: functional, cell-based
MDA-MB-468 [7] = test: Induction of ferroptosis in human MDA-MB-468 cells assessed as decrease in lipid peroxidation level at 25 nM incubated for 6 hrs in presence of ferrostatin-1 by C11-BODIPY staining based flow cytometry analysis; assay type: functional, cell-based
MDA-MB-468 [8] = test: Induction of ferroptosis in human MDA-MB-468 cells assessed as lipid peroxidation level by measuring fluorescence intensity at 25 nM incubated for 6 hrs in presence of ferrostatin-1 by C11-BODIPY staining based microscopic analysis; assay type: functional, cell-based
MDA-MB-468 [9] = test: Induction of ferroptosis in human MDA-MB-468 cells assessed as decrease in 4-HNE level at 25 nM in presence of ferrostatin-1; assay type: functional, cell-based
MDA-MB-468 [10] = test: Induction of ferroptosis in human MDA-MB-468 cells assessed as increase in lipid peroxidation at 25 nM by C11-BODIPY staining based flow cytometry analysis; assay type: functional, cell-based; settings: time <= 24.0 hrs
MDA-MB-468 [11] = test: Induction of ferroptosis in human MDA-MB-468 cells expressing GPX4 assessed as reduction in lipid peroxidation level at 25 nM incubated for 6 hrs by C11-BODIPY staining based flow cytometry analysis; assay type: functional, cell-based
MDA-MB-468 [12] = test: Antiproliferative activity against human MDA-MB-468 cells assessed as cell viability at 10 nM incubated for 48 hrs by MTT assay; assay type: functional, cell-based
A549 = test: Antiproliferative activity against human A549 cells assessed as cell viability at 10 nM incubated for 48 hrs by MTT assay; assay type: functional, cell-based
HEK293 = test: Antiproliferative activity against human HEK293 cells assessed as cell viability at 10 nM incubated for 48 hrs by MTT assay; assay type: toxicity, cell-based; settings: hek293, 48 h, 0.01 µM
MDA-MB-468 [13] = test: Induction of ROS production in human MDA-MB-468 cells assessed as increase in fluorescent signal at 25 nM incubated for 6 hrs by DCFH-DA staining based flow cytometry analysis; assay type: functional, cell-based
MDA-MB-468 [14] = test: Antiproliferative activity against human MDA-MB-468 cells assessed as reduction in cell viability at 50 nM incubated for 48 hrs in presence of N-acetyl cysteine by MTT assay; assay type: functional, cell-based
MDA-MB-468 [15] = test: Induction of mitochondrial dysfunction in human MDA-MB-468 cells assessed as reduction in oxygen consumption rate (OCR) at 25 nM; assay type: functional, cell-based
4T1 [16] = test: Antitumor activity against mouse 4T1 cells implanted in female BALB/c mouse at 10 mg/kg, iv administered upto 5 days; assay type: functional, organism-based; settings: time <= 5.0 day
4T1 [17] = test: Antitumor activity against mouse 4T1 cells implanted in female BALB/c mouse assessed as reduction in tumor volume at 10 mg/kg, iv administered upto 5 days; assay type: functional, organism-based; settings: time <= 5.0 day
4T1 [18] = test: Antitumor activity against mouse 4T1 cells implanted in female BALB/c mouse assessed as increase in phospho PERK level in tumor at 10 mg/kg, iv administered upto 5 days by Western blot analysis; assay type: functional, organism-based; settings: time <= 5.0 day
4T1 [19] = test: Antitumor activity against mouse 4T1 cells implanted in female BALB/c mouse assessed as increase in 4-HNE level in tumor at 10 mg/kg, iv administered upto 5 days by Western blot analysis; assay type: functional, organism-based; settings: time <= 5.0 day
4T1 [20] = test: Antitumor immunity against mouse 4T1 cells implanted in female BALB/c mouse model assessed as increase in ratio of CD8+ T cells to CD4+ T cells at 10 mg/kg, iv administered upto 5 days by flow cytometry analysis; assay type: functional, organism-based; settings: time <= 5.0 day
[21] = Toxicity in female BALB/c mouse implanted with mouse 4T1 cells assessed as liver damage at 10 mg/kg, iv; assay type: organism-based; settings: in vivo
[22] = Toxicity in female BALB/c mouse implanted with mouse 4T1 cells assessed as spleen damage at 10 mg/kg, iv; assay type: organism-based; settings: in vivo
[23] = Toxicity in female BALB/c mouse implanted with mouse 4T1 cells assessed as kidney abnormality at 10 mg/kg, iv; assay type: organism-based; settings: in vivo
[24] = Toxicity in female BALB/c mouse implanted with mouse 4T1 cells assessed as lung abnormality at 10 mg/kg, iv; assay type: organism-based; settings: in vivo
[25] = Toxicity in female BALB/c mouse implanted with mouse 4T1 cells assessed as liver lesion at 10 mg/kg, iv; assay type: organism-based; settings: in vivo
[26] = Toxicity in female BALB/c mouse implanted with mouse 4T1 cells assessed as kidney lesion at 10 mg/kg, iv; assay type: organism-based; settings: in vivo
[27] = Toxicity in female BALB/c mouse implanted with mouse 4T1 cells assessed as heart lesion at 10 mg/kg, iv; assay type: organism-based; settings: in vivo
Cisplatin-resistant 4T1 = test: Antitumor activity against mouse Cisplatin-resistant 4T1 cells implanted in female BALB/c mouse assessed as reduction in tumor weight at 10 mg/kg, ip; assay type: functional, organism-based

inhibition [1]	Structure (SMILES)	Activity (MDA-MB-468 [2])	Activity (MDA-MB-468 [3])	Activity (MDA-MB-468 [4])	Activity (MDA-MB-468 [5])	Activity (MDA-MB-468 [6])	Activity (MDA-MB-468 [7])	Activity (MDA-MB-468 [8])	Activity (MDA-MB-468 [9])	Activity (MDA-MB-468 [10])	Activity (MDA-MB-468 [11])	other results
Active	CCCCCCC[C@@H](O)CC(=O)N[C@H](Cc1ccccc1)C(=O)N[C@H]1CSSC[C@@H](C(=O)O)NC1=O	Active	inactive	Active	Active	inactive	Active	Active	Active	Time-dependent-effect	Active	–
Active	CCCCCCC[C@@H]1CC(=O)N[C@H](Cc2ccccc2)C(=O)N[C@@H](CSC)C(=O)N[C@@H](CSC)C(=O)O1	Active	inactive	Active	Active	inactive	Active	Active	Active	Time-dependent-effect	Active	–
Active	CCCCCCC[C@@H]1CC(=O)N[C@H](Cc2ccccc2)C(=O)N[C@H]2CSSC[C@H](NC2=O)C(=O)O1	Active	Active	–	–	Active	Active	Active	Active	–	–	Activity (MDA-MB-468 [12]): Active; Activity (A549): Active; Activity (HEK293): Non-toxic; Activity (MDA-MB-468 [13]): Active; Activity (MDA-MB-468 [14]): Active; Activity (MDA-MB-468 [15]): Active; Activity (4T1 [16]): Active; Activity (4T1 [17]): Active; Activity (4T1 [18]): Active; Activity (4T1 [19]): Active; Activity (4T1 [20]): Active; Activity [21]: Non-toxic; Activity [22]: Non-toxic; Activity [23]: Non-toxic; Activity [24]: Non-toxic; Activity [25]: Non-toxic; Activity [26]: Non-toxic; Activity [27]: Non-toxic; Activity (Cisplatin-resistant 4T1): Active
